What was measured:
BJ [1] = assay: Compound was tested for human telomerase reverse transcriptase-SEAP (hTERT-SEAP) activity in immortalized hTERT-BJI at 22 uM concentration; format: functional
BJ [2] = assay: Compound was tested for cytomegalovirus or (pPCMV-SEAP) activity in immortalized hTERT-BJ1 at 2.0 uM concentration; format: functional, Homo sapiens
BJ [3] = assay: hTERT-SEAP (Human telomerase reverse transcriptase-SEAP) activity in immortalized hTERT-BJI at 22 uM concentration and level of cell viability determined in MTT assay; format: functional
NCI-H1299 [4] = assay: Compound was tested for human telomerase reverse transcriptase-SEAP (hTERT-SEAP) activity in non-small cell lung cancer H1299 cell at 220.0 uM concentration; format: functional
BJ [5] = assay: pPCMV-SEAP (cytomegalovirus-SEAP) activity in immortalized hTERT-BJ1 at 22 uM concentration and level of cell viability determined in MTT assay; format: functional, Homo sapiens
BJ [6] = assay: Compound was tested for human telomerase reverse transcriptase-SEAP (hTERT-SEAP) activity in immortalized hTERT-BJI at 220.0 uM concentration; format: functional
BJ [7] = assay: pPCMV-SEAP (cytomegalovirus-SEAP) activity in immortalized hTERT-BJ1 at 220 uM concentration and level of cell viability determined in MTT assay; format: functional, Homo sapiens
NCI-H1299 [8] = assay: Compound was tested for human telomerase reverse transcriptase-SEAP (hTERT-SEAP) activity in non-small cell lung cancer H1299 cell at 2.2 uM concentration; format: functional
NCI-H1299 [9] = assay: hTERT-SEAP (Human telomerase reverse transcriptase-SEAP) activity in non-small cell lung cancer H1299 cell at 2.2 uM concentration and level of cell viability determined in MTT assay; format: functional
BJ [10] = assay: Compound was tested for cytomegalovirus or (pPCMV-SEAP) activity in immortalized hTERT-BJ1 at 22 uM concentration; format: functional, Homo sapiens
BJ [11] = assay: hTERT-SEAP (Human telomerase reverse transcriptase-SEAP) activity in immortalized hTERT-BJI at 220.0 uM concentration and level of cell viability determined in MTT assay; format: functional
NCI-H1299 [12] = assay: hTERT-SEAP (Human telomerase reverse transcriptase-SEAP) activity in non-small cell lung cancer H1299 cell at 220.0 uM concentration and level of cell viability determined in MTT assay; format: functional
BJ [13] = assay: Compound was tested for cytomegalovirus or (pPCMV-SEAP) activity in immortalized hTERT-BJ1 at 220 uM concentration; format: functional, Homo sapiens
BJ [14] = assay: pPCMV-SEAP (cytomegalovirus-SEAP) activity in immortalized hTERT-BJ1 at 2.0 uM concentration and level of cell viability determined in MTT assay; format: functional, Homo sapiens
BJ [15] = assay: hTERT-SEAP (Human telomerase reverse transcriptase-SEAP) activity in immortalized hTERT-BJI at 2.2 uM concentration and level of cell viability determined in MTT assay; format: functional
NCI-H1299 [16] = assay: Compound was tested for human telomerase reverse transcriptase-SEAP (hTERT-SEAP) activity in non-small cell lung cancer H1299 cell at 22 uM concentration; format: functional
BJ [17] = assay: Compound was tested for human telomerase reverse transcriptase-SEAP (hTERT-SEAP) activity in immortalized hTERT-BJI at 2.2 uM concentration; format: functional
BJ [18] = assay: Compound was tested for human telomerase reverse transcriptase-SEAP (hTERT-SEAP) activity in immortalized hTERT-BJI at 18 uM concentration; format: functional
BJ [19] = assay: Compound was tested for cytomegalovirus or (pPCMV-SEAP) activity in immortalized hTERT-BJ1 at 1.8 uM concentration; format: functional, Homo sapiens
BJ [20] = assay: pPCMV-SEAP (cytomegalovirus-SEAP) activity in immortalized hTERT-BJ1 at 1.8 uM concentration and level of cell viability determined in MTT assay; format: functional, Homo sapiens
NCI-H1299 [21] = assay: Compound was tested for human telomerase reverse transcriptase-SEAP (hTERT-SEAP) activity in non-small cell lung cancer H1299 cell at 1.8 uM concentration; format: functional
NCI-H1299 [22] = assay: hTERT-SEAP (Human telomerase reverse transcriptase-SEAP) activity in non-small cell lung cancer H1299 cell at 18 uM concentration and level of cell viability determined in MTT assay; format: functional
NCI-H1299 [23] = assay: hTERT-SEAP (Human telomerase reverse transcriptase-SEAP) activity in non-small cell lung cancer H1299 cell at 180.0 uM concentration and level of cell viability determined in MTT assay; format: functional
BJ [24] = assay: pPCMV-SEAP (cytomegalovirus-SEAP) activity in immortalized hTERT-BJ1 at 18 uM concentration and level of cell viability determined in MTT assay; format: functional, Homo sapiens
NCI-H1299 [25] = assay: Compound was tested for human telomerase reverse transcriptase-SEAP (hTERT-SEAP) activity in non-small cell lung cancer H1299 cell at 180.0 uM concentration; format: functional
BJ [26] = assay: hTERT-SEAP (Human telomerase reverse transcriptase-SEAP) activity in immortalized hTERT-BJI at 18 uM concentration and level of cell viability determined in MTT assay; format: functional
BJ [27] = assay: pPCMV-SEAP (cytomegalovirus-SEAP) activity in immortalized hTERT-BJ1 at 180 uM concentration and level of cell viability determined in MTT assay; format: functional, Homo sapiens
BJ [28] = assay: hTERT-SEAP (Human telomerase reverse transcriptase-SEAP) activity in immortalized hTERT-BJI at 180.0 uM concentration and level of cell viability determined in MTT assay; format: functional
BJ [29] = assay: Compound was tested for cytomegalovirus or (pPCMV-SEAP) activity in immortalized hTERT-BJ1 at 180 uM concentration; format: functional, Homo sapiens
NCI-H1299 [30] = assay: hTERT-SEAP (Human telomerase reverse transcriptase-SEAP) activity in non-small cell lung cancer H1299 cell at 1.8 uM concentration and level of cell viability determined in MTT assay; format: functional
NCI-H1299 [31] = assay: Compound was tested for human telomerase reverse transcriptase-SEAP (hTERT-SEAP) activity in non-small cell lung cancer H1299 cell at 18 uM concentration; format: functional
BJ [32] = assay: Compound was tested for human telomerase reverse transcriptase-SEAP (hTERT-SEAP) activity in immortalized hTERT-BJI at 180.0 uM concentration; format: functional
BJ [33] = assay: Compound was tested for cytomegalovirus or (pPCMV-SEAP) activity in immortalized hTERT-BJ1 at 18 uM concentration; format: functional, Homo sapiens

For `COc1ccc(CSc2cccc3c2C(=O)c2cccc(SCc4ccc(OC)cc4)c2C3=O)cc1`, the “Relative SEAP activity” value (BJ [1]) was 141%, the “Relative SEAP activity” value (BJ [2]) was 103% and the Relative viability (BJ [3]) was 98%. For the same molecule, the “Relative SEAP activity” value (NCI-H1299 [4]) was 88%, the Relative viability (BJ [5]) was 67% and the “Relative SEAP activity” value (BJ [6]) was 118%. For the same molecule, the Relative viability (BJ [7]) was 52%, the “Relative SEAP activity” value (NCI-H1299 [8]) was 92% and the Relative viability (NCI-H1299 [9]) was 89%. The “Relative SEAP activity” value (BJ [10]) was 102%, the Relative viability (BJ [11]) was 62% and the Relative viability (NCI-H1299 [12]) was 42%. For the same molecule, the “Relative SEAP activity” value (BJ [13]) was 100%, the Relative viability (BJ [14]) was 116% and the Relative viability (BJ [15]) was 119%. The “Relative SEAP activity” value (NCI-H1299 [16]) was 96% and the “Relative SEAP activity” value (BJ [17]) was 142%.
With `O=C(Oc1cccc2c1C(=O)c1cccc(OC(=O)c3ccc(Cl)cc3Cl)c1C2=O)c1ccc(Cl)cc1Cl` the “Relative SEAP activity” value (BJ [18]) was 150%, the “Relative SEAP activity” value (BJ [19]) was 99% and the Relative viability (BJ [20]) was 105%. For the same molecule, the “Relative SEAP activity” value (NCI-H1299 [21]) was 100%, the Relative viability (NCI-H1299 [22]) was 103% and the Relative viability (NCI-H1299 [23]) was 77%. The Relative viability (BJ [24]) was 105%, the “Relative SEAP activity” value (NCI-H1299 [25]) was 96% and the Relative viability (BJ [26]) was 102%. The Relative viability (BJ [27]) was 108%, the Relative viability (BJ [28]) was 96% and the “Relative SEAP activity” value (BJ [29]) was 121%. For the same molecule, the Relative viability (NCI-H1299 [30]) was 108%, the “Relative SEAP activity” value (NCI-H1299 [31]) was 102% and the “Relative SEAP activity” value (BJ [32]) was 160%. For the same molecule, the “Relative SEAP activity” value (BJ [33]) was 111%.

From ChEMBL document CHEMBL1144896 (2003)
